According to patent publication US5382670A, “Platelet activating factor antagonists” (priority 1993, dated 1995):
Where a name gives a salt, the structure may show the parent alone.

Molecular target: PAF receptor (Oryctolagus cuniculus, UniProt G1TEI7)
Assay: PAF receptor binding assay: inhibition of specific [3H]C18-PAF binding to rabbit platelet membranes
Details: 0.6 nM [3H]C18-PAF, 60 min, 22-23 °C, Ki from IC50 (Cheng and Prusoff), read-out: Ki (PAF Receptor Binding Activity)
Protocol: The ability of representative compounds of the present invention to inhibit PAF activity was determined in an in vitro test using the following method.
Citrated whole rabbit blood was obtained from Pel-Freez (Rogers, AR). Rabbit platelets were prepared by centrifugation and washing. The platelets were lysed by freeze-thawing and sonication; platelet membranes were prepared by centrifugation and washing. Final membrane preparations were stored frozen in 10 mM Tris/5 mM MgCl2 /2 mM EDTA (TME buffer, pH 7.0) with 0.25M sucrose added for membrane stabilization.
The standard PAF receptor binding assay contained 10 μg platelet membrane protein, 0.6 nM [^3 H]C18 -PAF (from Amersham or New England Nuclear; specific activity 120-180 Ci/mmol), with and without test compound, in "binding buffer" consisting of TME with 0.25% bovine serum albumin added (Sigma, RIA grade). The final volume of the assay was 100 μl. The assay was conducted in Millititre-GV™ (Millipore Corp.) filtration plates; incubation time was for 60 minutes at room temperature (22°-23° C.). "Specific binding" was operationally defined as the arithmetic difference between "total binding" of 0.6 nM [^3 H]C18 -PAF (in the abasence of added PAF) and "nonspecific binding" (in the presence of 1 μM PAF). After the prescribed incubation, platelet membranes were filtered under vacuum, and washed with 1 milliliter of "binding buffer". The filters were dried and removed. The bound radioactivity was quantitated with a Berthold TLC-Linear Analyzer model LB2842.
Dose-response curves of inhibition of specific [^3 H]C18 -PAF binding by test compounds were conducted in triplicate, with at least four doses covering the active range. Experiments were repeated at least once. IC50 values (concentration producing 50% inhibition) were determined by point-to-point evaluation. Ki values of inhibitory binding constants were calculated according to the method of Cheng and Prusoff [Biochem. Pharmacol. 22 (1973) 3099-3108] whereby [formula]
The values of Ki for representative compounds of the present invention appear in Table 1.

PAF receptor, sequence (G1TEI7 1-342): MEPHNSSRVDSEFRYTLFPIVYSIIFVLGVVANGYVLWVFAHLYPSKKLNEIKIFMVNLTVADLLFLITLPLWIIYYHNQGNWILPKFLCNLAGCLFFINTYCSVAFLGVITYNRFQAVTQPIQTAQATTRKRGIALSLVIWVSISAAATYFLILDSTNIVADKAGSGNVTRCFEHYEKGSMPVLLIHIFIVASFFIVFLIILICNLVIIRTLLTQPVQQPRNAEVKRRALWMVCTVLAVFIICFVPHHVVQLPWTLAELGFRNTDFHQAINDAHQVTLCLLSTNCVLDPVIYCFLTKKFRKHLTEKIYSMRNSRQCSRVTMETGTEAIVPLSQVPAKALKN

Which Ki does the source give for `O=C(c1c[nH]c2cccc(OCc3ccccc3)c12)C1CSC(c2cccnc2)N1` (centres unmarked) [Example 24, 3-[2-(3-pyridinyl)thiazolid-4-oyl-4-phenylmethoxyindole oxalate] here?
The Ki was 13 nM.

With `O=C(C1CSC(c2cccnc2)S1)n1ccc2ccccc21` (centres unmarked) [Example 26, 1-[2-(3-pyridinyl)dithiolan-4-oyl]indole oxalate] as the compound, how does the Ki read?
The Ki was 360 nM.

How did the Ki turn out when `CC(C)(C)OC(=O)n1cc(C(=O)C2CSC(c3cccnc3)N2)c2ccccc21` (centres unmarked) [Example 28, 1-tert-butoxycarbonyl-3-[2-(3-pyridinyl)thiazolid-4-oyl]indole oxalate] was run?
The Ki was 2 nM.

Which Ki does the source give for `O=C(c1c[nH]c2ccccc12)C1CSC(c2cccnc2)S1` (centres unmarked) [Example 31, 3-2-(3-pyridinyl)dithiolan-4-oyl]indole oxalate] here?
The Ki was 1700 nM.

Which Ki does the source give for `O=C(c1cn(S(=O)(=O)c2ccccc2)c2ccccc12)C1CSC(c2cccnc2)S1` (centres unmarked) [Example 32, 1-phenylsulfonyl 3-[2-(3-pyridinyl)dithiolan-4-oyl]indole oxalate] here?
The Ki was 1000 nM.

`O=C(c1c[nH]c2cc(OCc3ccccc3)ccc12)C1CSC(c2cccnc2)N1` (centres unmarked) [Example 34, 6-phenylmethoxy-3-[2-(3-pyridinyl)thiazolid-4-oyl]indole] was tested. Which Ki did it give?
The Ki was 2 nM.

With `CC(C)(C)OC(=O)n1cc(C(=O)C2CSC(c3cccnc3)N2)c2ccc(OCc3ccccc3)cc21` (centres unmarked) [Example 35, 1-tert-butoxycarbonyl-6-phenylmethoxy-3-[2-(3-pyridinyl)thiazolid-4-oyl]indole oxalate] as the compound, how does the Ki read?
The Ki was 1 nM.

Which Ki does the source give for `O=C(c1cn(S(=O)(=O)c2ccccc2)c2ccccc12)C1CSC(c2cccnc2)N1` (centres unmarked) [Example 36, 1-phenylsulfonyl-3-[2-(3-pyridinyl)thiazolid-4-oyl]indole] here?
Its Ki is 30 nM.

How did the Ki turn out when `CN(C)C(=O)n1cc(C(=O)C2CSC(c3cccnc3)N2)c2ccccc21` (centres unmarked) [Example 38] was run?
Its Ki is 1 nM.

`Cc1c(C(=O)C2CSC(c3cccnc3)N2)c2ccccc2n1C(=O)OC(C)(C)C` (centres unmarked) [Example 40, 1-tert-butoxycarbonyl-2-methyl-3-[2-(3-pyridinyl)thiazolid-4-oyl]indole oxalate] was tested. Which Ki did it give?
Its Ki is 10 nM.

With `O=C(c1cn(C(=O)c2ccc(Cl)cc2)c2ccccc12)C1CSC(c2cccnc2)N1` (centres unmarked) [Example 44, 1-(4-chlorobenzoyl)-3-[2-(3-pyridinyl)thiazolid-4oyl]indole] as the compound, how does the Ki read?
Its Ki is 4 nM.

For `O=C(c1cn(C(=O)OCc2ccccc2)c2ccccc12)C1CSC(c2cccnc2)N1` (centres unmarked) [Example 45, 1-phenylmethoxycarbonyl-3-[2-(pyridinyl)thiazolid-4-oyl]indole oxalate], which Ki is on record?
Its Ki is 3 nM.

Which Ki does the source give for `CC(C)(C)C(=O)n1cc(C(=O)C2CSC(c3cccnc3)N2)c2ccccc21` (centres unmarked) [Example 47, 1-tert-butoyl-3-[2-(3-pyridinyl)thiazolid-4-oyl]indole] here?
The Ki was 9 nM.

`CCN(CC)C(=O)n1cc(C(=O)C2CSC(c3cccnc3)N2)c2ccccc21` (centres unmarked) [Example 48, 1-diethylcarbamoyl-3-[2-(3-pyridinyl)thiazolid-4-oyl]indole] was tested. Which Ki did it give?
Its Ki is 1 nM.

For `CN(C(=O)n1cc(C(=O)C2CSC(c3cccnc3)N2)c2ccccc21)c1ccccc1` (centres unmarked) [Example 49, 1-(N-methyl, N-phenyl)-3-[2-(3-pyridinyl)thiazolid-4-oyl]indole], which Ki is on record?
The Ki was 25 nM.

Which Ki does the source give for `O=C(c1c[nH]c2c(OCc3ccccc3)cccc12)C1CSC(c2cccnc2)N1` (centres unmarked) [Example 50, 7-phenylmethoxy-3-[2-(3-pyridinyl)thiazolid-4-oyl]indole] here?
The Ki was 1 nM.

Which Ki does the source give for `CN(C)C(=O)n1cc(C(=O)C2CSC(c3cccnc3)N2)c2cccc(OCc3ccccc3)c21` (centres unmarked) [Example 51, 1-dimethylcarbamoyl)-7-phenylmethoxy-3-[2-(3-pyridinyl)thiazolid-4-oyl]indole oxalate] here?
Its Ki is 13 nM.

For `CN(C)C(=O)n1cc(C(=O)C2CSC(c3cccnc3)N2)c2ccc(OCc3ccccc3)cc21` (centres unmarked) [Example 52, 1-dimethylcarbamoyl-6-phenylmethoxy-3-[2-(3-pyridinyl)thiazolid-4-oyl]indole], which Ki is on record?
The Ki was 1 nM.

Which Ki does the source give for `CC(C)(C)OC(=O)n1cc(C(=O)C2CSC(c3cccnc3)N2)c2cccc(OCc3ccccc3)c21` (centres unmarked) [Example 53, 1-tert-butoxycarbonyl-7-phenylmethoxy-3-[2-(3-pyridinyl)thiazolid-4-oyl]indole] here?
The Ki was 1 nM.

Which Ki does the source give for `CC(C)(C)NC(=O)n1cc(C(=O)C2CSC(c3cccnc3)N2)c2ccccc21` (centres unmarked) [Example 54] here?
The Ki was 9 nM.

How did the Ki turn out when `O=C(c1cn(C(=O)N2CCOCC2)c2ccccc12)C1CSC(c2cccnc2)N1` (centres unmarked) [Example 55, 1-(4-morpholinocarbonyl)-3-[2-(3-pyridinyl)thiazolid-4-oyl]indole] was run?
The Ki was 2 nM.

How did the Ki turn out when `CC(C)(C)OC(=O)n1cc(C(=O)C2CSC(c3cccnc3)N2C=O)c2ccccc21` (centres unmarked) [Example 56, 1-tert-butoxycarbonyl-3-[2-(3-pyridinyl)-3-formylcarbonylthiazolid-4-oyl]indole] was run?
Its Ki is 150 nM.

With `CC(=O)N1C(C(=O)c2cn(C(=O)OC(C)(C)C)c3ccccc23)CSC1c1cccnc1` (centres unmarked) [Example 57, 1-tert-butoxycarbonyl-3-[2-(3-pyridinyl)-3-acetylthiazolid-4-oyl]indole] as the compound, how does the Ki read?
The Ki was 10 nM.

For `CC(C)(C)OC(=O)n1cc(C(=O)C2CSC(c3cccnc3)N2C(N)=O)c2ccccc21` (centres unmarked) [Example 58, 1-tert-butoxycarbonyl-3-[2-(3-pyridinyl)-3-carbamoylthiazolid-4-oyl]indole], which Ki is on record?
Its Ki is 540 nM.

Which Ki does the source give for `CCS(=O)(=O)n1cc(C(=O)C2CSC(c3cccnc3)N2)c2ccccc21` (centres unmarked) [Example 62, 1-ethylsulfonyl-3-[2-(3-pyridinyl)thiazolid-4-oyl]indole] here?
The Ki was 18 nM.

`Cc1c(C(=O)C2CSC(c3cccnc3)N2)c2ccccc2n1C(=O)N1CCOCC1` (centres unmarked) [Example 64, 1-(1-morpholinocarbonyl)-2-methyl-3-[2-(3-pyridinyl)thiazolid-4-oyl]indole] was tested. Which Ki did it give?
Its Ki is 88 nM.

`Cc1c(C(=O)C2CSC(c3cccnc3)N2)c2ccccc2n1C(=O)N(C)C` (centres unmarked) [Example 65, 1-dimethylcarbamoyl-2-methyl-3-[2-(3-pyridyl)thiazolid-4-oyl]indole] was tested. Which Ki did it give?
The Ki was 9 nM.

For `Cc1ccc2c(c1)c(C(=O)C1CSC(c3cccnc3)N1)c(C)n2C(=O)OC(C)(C)C` (centres unmarked) [Example 67, 1-tert-butoxycarbonyl-2,5-dimethyl-3-[2-[3-pyridinyl)thiazolid-4-oyl]indole oxalate], which Ki is on record?
Its Ki is 39 nM.

How did the Ki turn out when `Cc1ccc2c(c1)c(C(=O)C1CSC(c3cccnc3)N1)c(C)n2C(=O)N1CCOCC1` (centres unmarked) [Example 68, 1-(4-morpholinocarbonyl)-2,5-dimethyl-3-[2-(3-pyridinyl)thiazolid-4-oyl]indole] was run?
Its Ki is 36 nM.

`Cc1ccc2c(c1)c(C(=O)C1CSC(c3cccnc3)N1)c(C)n2C(=O)N(C)C` (centres unmarked) [Example 69, 1-dimethylcarbamoyl-2,5-dimethyl-3-[2-(3-pyridinyl)thiazolid-4oyl]indole oxalate] was tested. Which Ki did it give?
The Ki was 13 nM.

`O=C(c1c[nH]c2cc(Oc3ccc(F)cc3)ccc12)C1CSC(c2cccnc2)N1` (centres unmarked) [Example 70, 3-[2-(3-pyridinyl)thiazolid-4-oyl]-6-(4-fluorophenoxy)indole] was tested. Which Ki did it give?
Its Ki is 2 nM.

How did the Ki turn out when `CN(C)C(=O)n1cc(C(=O)C2CSC(c3cccnc3)N2)c2ccc(Oc3ccc(F)cc3)cc21` (centres unmarked) [Example 71, 1-dimethylcarbamoyl-3-[2-(3-pyridinyl)thiazolid-4-oyl]-6-(4-fluorophenoxy)indole] was run?
The Ki was 2 nM.

Same assay, conditions: Ki (PAF Receptor Binding Activity), 0.6 nM [3H]C18-PAF, 60 min, 22-23 °C, Ki from IC50 (Cheng and Prusoff)

`Cc1cccc2c(C(=O)C3CSC(c4cccnc4)N3)c[nH]c12` (centres unmarked) [Example 25, 3-(2-(3-pyridinyl)thiazolid-4-oyl)-7-methylindole oxalate] was tested. Which Ki did it give?
Its Ki is 5 nM.

`CCn1cc(C(=O)C2CSC(c3cccnc3)N2)c2ccccc21` (centres unmarked) [Example 27, 1-ethyl-3-[2-(3-pyridinyl)thiazolid-4-oyl]indole oxalate] was tested. Which Ki did it give?
The Ki was 6 nM.

For `CS(=O)(=O)n1cc(C(=O)C2CSC(c3cccnc3)N2)c2ccccc21` (centres unmarked) [Example 37, 1-methylsulfonyl-3-[2-(3-pyridinyl)thiazolid-4-oyl-]indole], which Ki is on record?
The Ki was 15 nM.

For `Cc1[nH]c2ccccc2c1C(=O)C1CSC(c2cccnc2)N1` (centres unmarked) [Example 39], which Ki is on record?
Its Ki is 23 nM.

How did the Ki turn out when `O=C(c1cn(Cc2ccccc2)c2ccccc12)C1CSC(c2cccnc2)N1` (centres unmarked) [Example 46, 1-phenylmethyl-3-[2-(3-pyridinyl)thiazolid-4-oyl]indole] was run?
Its Ki is 50 nM.

For `O=C(c1cn(CC(F)(F)F)c2ccccc12)C1CSC(c2cccnc2)N1` (centres unmarked) [Example 59, 1-trifluoroethyl-3-[2-(3-pyridinyl)thiazolid-4-oyl]indole], which Ki is on record?
Its Ki is 20 nM.

For `CCOC(=O)Cn1cc(C(=O)C2CSC(c3cccnc3)N2)c2ccccc21` (centres unmarked) [Example 60, 1-ethoxycarbonylmethyl-3-[2-(3-pyridinyl)thiazolid-4-oyl]indole], which Ki is on record?
The Ki was 2 nM.

For `CCCn1cc(C(=O)C2CSC(c3cccnc3)N2)c2ccccc21` (centres unmarked) [Example 61, 1-propyl-3-[2-(3-pyridinyl)thiazolid-4-oyl]indole], which Ki is on record?
The Ki was 8 nM.

For `Cc1ccc2[nH]c(C)c(C(=O)C3CSC(c4cccnc4)N3)c2c1` (centres unmarked) [Example 66, 2,5-dimethyl-3-[2-[3-pyridinyl)thiazolid-4-oyl]indole oxalate], which Ki is on record?
The Ki was 31 nM.
